# Assay results: article PMC10886690, “Synthesis, Characterization, Antioxidant, and Anticancer Activity against Colon Cancer Cells of Some Cinnamaldehyde-Based Chalcone Derivatives” (Biomolecules, 2024)
# Entries after “also recorded” stand apart in the source; their conditions may differ. Where two headings read alike, the source gives them in different places.
# Legend:
# Caco-2 cells [1] = assay: MTT cytotoxicity against Caco-2 cells; type: cell-based, human; settings: 24 h incubation, mean ± SD of three analyses, read-out: IC50 Conc. against Caco-2 cells
# Experimental: (§1) The American Type Culture Collection (ATCC) provided WI-38 (ATCC CCL-75), a cell line from the healthy human embryonic lung, and Caco-2 (ATCC HTB-37), a cell line from colon cancer. These cells were developed in DMEM medium that was supplemented with antibiotics and fetal bovine serum in a 5% CO2 humidified incubator at 37 °C.
# The toxicity of the tested compounds (3a–3k) toward Caco-2 cancer cells was examined and compared to 5-Fluorouracil (5-FU, the standard reference drug) utilizing MTT assay, as previously explained. In brief, 1 × 10^5 Caco-2 cells/mL were distributed into each well of a 96-well plate and kept overnight at 37 °C in their growth mixture. The cells were then subjected to the various doses of the studied compounds (50–1000 µM). Following that, the cells were exposed to MTT solution, which induced formazan formation from the MTT, a byproduct of the metabolism of MTT that is proportionate to the quantity of intact cells. To further dissolve the formazan crystal, dimethyl sulfoxide was applied to the cells. Caco-2 survival was obtained through measuring the value of the optical density at 570 nm implementing a microplate reader (Bio-Rad, Hercules, CA, USA), and the effect of the substances on cell proliferation was expressed using the aforementioned formula (2):Cell viability % = (Abs. of tested sample − Abs. of blank)/(Abs. of control − Abs. of blank) × 100(2)
# The half-suppression (IC50) dose of the test drugs over a 24 h incubation period was identified through examination of the concentration–response curve. Each value was evaluated three times, and the average of the three ratings was employed to obtain the results.
# Caco-2 cells [2] = assay: Comet assay (DNA fragmentation); type: cell-based, human
# From the text: The production of genotoxicity in Caco-2 cells treated with compound 3e was investigated using a comet test. Caco-2 cells were pretreated with a caspase-3 inhibitor (Z-DEVD-FMK) to ascertain whether or not caspase-3 activity contributed to the DNA damage induced by compound 3e. Using the comet test, in order to assess the influence of compound 3e upon DNA damage, Caco-2 cells were subjected to either compound 3e separately (IC50 concentration) or compound 3e (IC50 concentration) following prior treatment with Z-DEVD-FMK ([…]) for 1 h. Broken strands of broken DNA will detach from intact strands of cellular DNA during fragmentation, producing a structure similar to a comet tail visible under a fluorescence microscope (Carl Zeiss, Axiostar Plus 1169–149, Jena, Germany). For each slide, 100 photos of comets of varying shapes were captured using a computerized image analysis system. Afterwards, the photos were analyzed using the TriTek Comet ScoreTM program (TriTek Corp., Sumerduck, VA, USA) to gather information about the comet’s properties. The tail DNA and tail moment, two often-utilized markers, were built to be used in discovering the data. The Olive tail moment (OTM), which is also called a tail moment parameter, is generally accepted as the gold standard for evaluating DNA damage. Its value, which was calculated using Equation (3), is proportional to the tail’s DNA mobility and DNA abundance. OTM = quantity of tail moment × quantity of tail DNA divided by 100(3)
# BCL-2 [3] = assay: ELISA of BCL-2 protein in Caco-2 cells; type: cell-based, human; settings: Caco-2, IC50 dose
# Experimental: (§2) Protein expression levels of the under investigation genes were evaluated in Caco-2 cells treated with compound 3e using an ELISA assay. Three different ELISA kits were used: one for BAX (ab199080), one for cleaved Caspase-3 (ab220655), and one for BCL-2 (ab272102), which were supplied via Abcam (Cambridge, UK). All of these kits are based on a single, highly sensitive sandwich enzyme assay that lasts 90 min and uses a precoated ELISA plate and an anti-tag antibody to capture antibodies that have been labeled with an affinity tag. The tested compound 3e-treated cultured Caco-2 cells were centrifuged, the resulting pellets were discarded, and the residual supernatant was mixed with an antibody cocktail solution in a 96-well ELISA plate. The plate was then incubated for 1 h at room temperature. After thoroughly rinsing the plate in wash buffer (1×), in each well, a ten min incubation period of tetramethylbenzidine substrate solution was conducted. Following that, the plate was stored in a dim area. The intensity at 450 nm was then measured with a microplate reader immediately after a stop solution was added.
# BAX [4] = assay: ELISA of BAX protein in Caco-2 cells; type: cell-based, human; settings: Caco-2, IC50 dose
# Experimental: as §2
# Caco-2 cells [5] = assay: Annexin V/PI flow cytometry apoptosis assay; type: cell-based, human; settings: Caco-2, IC50 dose, 24 h
# Experimental: The annexin V/PI assay focuses on the translocation of phosphatidylserine (PS) from the inner plasma membrane toward the cell surface within apoptotic cells. Accordingly, the Annexin V-FITC detection kit I (BD Biosciences) was implemented to figure out the numbers of apoptotic and necrotic cells in both the compound 3e-treated and untreated Caco-2 cells for 24 h.. In brief, Caco-2 cells were collected, expanded in 6-well culture dishes with 1 × 10^6 cells per well, and then allowed to incubate for an overnight period to promote cell adhesion and proliferation. After only 24 h in the presence of the 3e compound, the cells were trypsinized, centrifuged, rinsed with PBS, and then mixed with a solution containing Annexin V binding buffer (1×) before being exposed to the Annexin V-FITC and propidium iodide stains. At last, a flow cytometer (BD FACSCalibur™, Biosciences, San Jose, CA, USA) was implemented to find the amount of early as well as late apoptotic cells, and the outcomes were presented graphically.
# [6] = DPPH free-radical scavenging (antioxidant) assay; settings: 40–200 µM in methanol, versus ascorbic acid
# Experimental: The potential of several compounds to scavenge DPPH free radicals was quantified employing a colorimetric approach. Various doses of all tested compounds (3a–3k) were prepared in methanol (40–200 µM), and standard solutions of ascorbic acid (40–200 µM) were made by dissolving the compound in methanol. After determining the optimal concentration of each compound and ascorbic acid, the solutions were supplemented with DPPH. The radical scavenging capacity (RSC) was calculated by measuring the absorbance at 517 nm and using the Formula (1):% DPPH RSC = (Abs. of control − Abs. of sample or standard)/Abs. of control × 100(1)
# BAX [7] = assay: qRT-PCR of BAX mRNA in Caco-2 cells; type: cell-based, human; settings: Caco-2, IC50 concentration
# From the text: (§3) The relative amounts of messenger RNA (mRNA) for apoptosis-related genes (BCL-2, Caspase-3, and BAX) have been monitored in order to look into potential processes relating to the effect of the tested 3e compound on apoptosis inside the treated Caco-2 cancer cells. In a nutshell, Thermo Fisher Scientific’s RNA purification kit (Waltham, MA, USA) (catalog #K0731) was used to isolate total RNA from both control- and Caco-2-treated cells, as per the manufacturer’s instructions. The ratio of A260/A280 was then quantified using a spectrophotometer to figure out the amounts of extracted RNA in each sample. Then, following the manufacturer’s instructions, first-strand cDNA was produced from the collected RNA samples using a kit made by Thermo Fisher Scientific called RevertAid (catalog #K1621). Real-time PCR amplification was performed on an Applied Biosystems StepOnePlusTM instrument using the Thermo Fisher Scientific Maxima SYBR Green qPCR kit (catalog #K0221) and gene-specific primers (Invitrogen, Waltham, MA, USA), as detailed in Table 3. Then, the relative quantification (RQ) of the utilized genes was calculated using a comparative threshold cycle approach, compared against their varied expression in the untreated samples, and normalized to B-actin as a housekeeping gene. […]
# wi38 cells = assay: MTT test on healthy WI38 cells; type: cell-based, human; settings: 24 h; for effect on wi38 normal cell viability: 50 to 1000 µM
# Experimental: as §1
# The effects of the investigated compounds on the survival of healthy cells, WI38, have been evaluated and compared to 5-Fluorouracil (5-FU, the standard reference drug) utilizing the MTT test at concentrations ranging from 50 to 1000 µM to further determine whether the substances were secure for usage on living tissues. Three distinct evaluations of each value were carried out to calculate the final findings.
# BCL-2 [8] = assay: qRT-PCR of BCL-2 mRNA in Caco-2 cells; type: cell-based, human; settings: Caco-2, IC50 concentration
# From the text: as §3
# Caco-2 cells [9] = assay: LDH release ELISA in treated Caco-2 cells; type: cell-based, human; settings: compound-treated Caco-2 cells, p < 0.001
# Experimental: The amount of lactate dehydrogenase enzyme (LDH) secreted by compound 3e-treated Caco-2 cells was measured using the double-antibody-sandwich ELISA method (Sun-Red, Cat. N. 201-28-0094) to confirm the cytotoxic impact of the tested chemical on Caco-2 cells. Specifically, 40 µL of the supernatant obtained from centrifuging the Caco-2 cells that had been treated with the 3e compound was added to the test wells. Next, LDH-antibody (10 µL) and Streptavidin-HRP (50 µL) were transferred to every well. After 60 min of incubation at 37 °C, the 96-well plate was shaken gently. […] The 96-well plate was then gently shaken and left to incubate for 60 min at 37 °C. The plates were then washed, and each test well received 50 µL of chromogen solution A and 50 µL of chromogen solution B. The plates were then incubated at 37 °C, and darkened for 10 min. Stop solution (50 µL) was then applied to each well. Once testing was complete, 450 nm was used to determine the plate’s optical density (OD). The amount of released LDH was calculated using the standard curve that had been previously established.
# cleaved Caspase-3 = assay: ELISA of cleaved Caspase-3 protein in Caco-2 cells; type: cell-based, human; settings: Caco-2, IC50 dose
# Experimental: as §2
# Caspase-3 = assay: qRT-PCR of Caspase-3 mRNA in Caco-2 cells; type: cell-based, human; settings: Caco-2, IC50 concentration
# From the text: as §3
# [10] = Caco-2, IC50 concentration after pretreatment with Caspase-3 inhibitor Z-DEVD-FMK for 1 h
# [11] = Caco-2, compound alone at IC50 concentration, without Caspase-3 inhibitor
melting point [°C],Compound,"IC50 (Caco-2 cells [1]; Homo sapiens, Caco-2, 24 h) [µM]",also measured
177,"COc1ccccc1/C=C/C=C/C(=O)c1ccc[nH]1 [3g, (2E,4E)-5-(2-methoxyphenyl)-1-(1H-pyrrol-2-yl)penta-2,4-dien-1-one]",336 ± 4.96,
195,"COc1ccccc1/C=C/C=C/C(=O)c1ccccn1 [3f, (2E,4E)-5-(2-methoxyphenyl)-1-(pyridin-2-yl)penta-2,4-dien-1-one]",173 ± 3.84,
205,"O=C(/C=C/C=C/c1ccc([N+](=O)[O-])cc1)c1ccccn1 [3h, (2E,4E)-5-(4-nitrophenyl)-1-(pyridin-2-yl)penta-2,4-dien-1-one]",548.6 ± 3.76,
170,"O=C(/C=C/C=C/c1ccccc1)c1ccc[nH]1 [3e, (2E,4E)-5-phenyl-1-(1H-pyrrol-2-yl)penta-2,4-dien-1-one]",32.1 ± 3.92,"% DNA in Tail (Caco-2 cells [2]; [10]): 4.55± 1.73; Olive Tail Moment (OTM) (Caco-2 cells [2]; [10]): 0.69± 0.16; Tail Moment (Caco-2 cells [2]; [10]): 0.44± 0.08; % DNA in Tail (Caco-2 cells [2]; [11]): 8.18 ± 0.56; Olive Tail Moment (OTM) (Caco-2 cells [2]; [11]): 1.92 ± 0.04; Tail Moment (Caco-2 cells [2]; [11]): 1.19 ± 0.03; BCL-2 protein level versus untreated cells (BCL-2 [3]): decreased; BAX protein level versus untreated cells (BAX [4]): increased levels; percentage of apoptotic cells (early and late) versus untreated (Caco-2 cells [5]): much greater percentage of apoptotic cells; antioxidant activity (DPPH scavenging, IC50) compared with the other compounds [6]: highest effective antioxidant activity; BAX mRNA expression level versus untreated cells (BAX [7]): increased considerably; effect on wi38 normal cell viability (wi38 cells): higher % of wi38 cell viability; also recorded: no detrimental effects; BCL-2 mRNA expression level versus untreated cells (BCL-2 [8]): substantial reduction; LDH levels versus untreated Caco-2 cells (Caco-2 cells [9]): considerably increased; cleaved Caspase-3 protein level versus untreated cells (cleaved Caspase-3): increased levels; IC50 (Caco-2 cells [1]): 32.2 ± 3.92 µM; Caspase-3 mRNA expression level versus untreated cells (Caspase-3): increased considerably"
218,"O=C(/C=C/C=C/c1ccc([N+](=O)[O-])cc1)c1cccs1 [3j, (2E,4E)-5-(4-nitrophenyl)-1-(thiophen-2-yl)penta-2,4-dien-1-one]",149 ± 2.55,
189,"O=C(/C=C/C=C/c1ccc([N+](=O)[O-])cc1)c1ccco1 [3k, (2E,4E)-1-(furan-2-yl)-5-(4-nitrophenyl)penta-2,4-dien-1-one]",130 ± 3.28,
102,"O=C(/C=C/C=C/c1ccccc1)c1cccs1 [3c, (2E,4E)-5-phenyl-1-(thiophen-2-yl)penta-2,4-dien-1-one]",> 1000,

# More lines, now with the values behind:
Compound,melting point [°C],"IC50 (Caco-2 cells [1]; Homo sapiens, Caco-2, 24 h) [µM]",also measured
"O=C(/C=C/C=C/c1ccccc1)c1cccnc1 [3b, (2E,4E)-5-phenyl-1-(pyridin-3-yl)penta-2,4-dien-1-one]",104,> 1000,
"O=C(/C=C/C=C/c1ccccc1)c1ccco1 [3d, (2E,4E)-1-(furan-2-yl)-5-phenylpenta-2,4-dien-1-one]",,> 1000,
"O=C(/C=C/C=C/c1ccccc1)c1ccccn1 [3a, (2E,4E)-5-phenyl-1-(pyridin-2-yl)penta-2,4-dien-1-one]",182,725.6 ± 3.69,
"O=c1[nH]cc(F)c(=O)[nH]1 [5-FU, 5-Fluorouracil, reference compound]",,33.1 ± 1.45,"effect on wi38 normal cell viability (wi38 cells): decrease in wi38 cell viability with increasing its concentration; IC50 (wi38 cells; Homo sapiens, WI-38, 50–1000 µM, read-out: IC50 against normal wi38 cell): 22.8 ± 2.46 µM"
"O=C(/C=C/C=C/c1ccc([N+](=O)[O-])cc1)c1cccnc1 [3i, (2E,4E)-5-(4-nitrophenyl)-1-(pyridin-3-yl)penta-2,4-dien-1-one]",,207 ± 2.31,
